In US5135943A, “1H-imidazole derivative compounds and pharmaceutical compositions containing the same” (priority 1984, dated 1992):
≈ marks a conversion by molar mass, not a printed value. Like-named read-outs stand apart in the source and are kept apart here.

Key:
[1] = test system: C. albicans 32; assay: MIC, comparative in vitro testing against Martin compounds; assay type: cell-based; conditions: Candida albicans, 32; YNB medium, reading time 48 h; SZ vs M4; read-out: MIC
Procedure: (§1) Minimum Inhibitory Concentrations (MICS) of Sertaconazole were also measured in comparison to four of the compounds described in the Martin Patent, including a compound, referred to herein as Martin Compound 1, which has the same structure as Sertaconazole, expect that the sulfur in the benzothiophene ring is replaced by an oxygen.
(§2) The results of comparative in vitro testing of Sertaconazole and these four Martin compounds are shown in the following Table II against 16 microorganisms. The reading time is the time interval from the time of inoculation to the time of measurement.

[2] = test system: C. albicans 14; assay: as above; assay type: cell-based; conditions: Candida albicans, 14, 48 h, Casitone medium, reading time 48 h; SZ vs M4
Procedure: as §1, §2

[3] = test system: C. parapsilosis 19; assay: as above; assay type: cell-based; conditions: 19, 48 h, reading time 48 h, SZ vs M4
Procedure: as §1, §2

[4] = test system: C. guillermondii; assay: as above; assay type: cell-based; conditions: 48 h, reading time 48 h, SZ vs M4, read-out: MIC
Procedure: as §1, §2

[5] = test system: C. stellatoidea 36232; assay: as above; assay type: cell-based; conditions: Candida albicans, 36232, 48 h, reading time 48 h, SZ vs M4
Procedure: as §1, §2

[6] = test system: C. tropicalis 25; assay: as above; assay type: cell-based; conditions: Candida tropicalis, 25, 48 h, YNB medium, reading time 48 h; SZ vs M4
Procedure: as §1, §2

[7] = test system: C. albicans 31; assay: as above; assay type: cell-based; conditions: Candida albicans, 31; YNB medium, reading time 48 h; SZ vs M4; read-out: MIC
Procedure: as §1, §2

[8] = test system: C. krusei 24; assay: as above; assay type: cell-based; conditions: Pichia kudriavzevii, 24, 48 h, reading time 48 h, SZ vs M4, read-out: MIC
Procedure: as §1, §2

[9] = test system: C. pseudotropicalis 21; assay: as above; assay type: cell-based; conditions: Kluyveromyces marxianus, 21; Sabouraud medium, reading time 48 h; SZ vs M4; read-out: MIC
Procedure: as §1, §2

[10] = test system: C. albicans 15; assay: as above; assay type: cell-based; conditions: Candida albicans, 15, 48 h, Casitone medium, reading time 48 h; SZ vs M4
Procedure: as §1, §2

[11] = test system: C. albicans ATCC E-10231; assay: as above; assay type: cell-based; conditions: Candida albicans, ATCCE10231; Casitone medium, reading time 48 h; SZ vs M4; read-out: MIC
Procedure: as §1, §2

[12] = test system: 16 microorganisms; assay: Geometric mean of all MIC measurements, comparative in vitro testing; assay type: cell-based; conditions: 48 h, SZ vs M4, reading time 48 h; read-out: Geometric means of MIC
Procedure: as §1, §2

[13] = Acute toxicity in Swiss mice i.p.; conditions: mouse, in vivo, ip
Text: Such signs included convulsions and Straub tail(vertical righting of the tail).

[14] = Acute toxicity (LD50) in rat, three administration routes; conditions: in vivo, males
Procedure: (§3) Toxicity of Sertaconazole, Microazole and Martin's compounds 1, 2 and 3, as shown below, has been tested by standard methods. Both acute toxicity, subacute toxicity and chronic toxicity were studied
(§4) Oral, intraperitoneal and subcutaneous acute toxicity of sertaconazole and miconazole have been investigated. LD50 in mouse and rat, male and female, were measured.

[15] = test system: Candida tropicalis; assay: MIC by two-fold dilution, Candida tropicalis; assay type: cell-based; conditions: read-out: Minimum Inhibitory Concentration
Procedure: (§5) Minimum Inhibitory Concentrations (MICS) of Sertaconazole and Miconazole against 107 yeasts, 47 dermatophytes and 4 fungi were determined by a two-fold dilution method.

[16] = test system: Candida s.p.; assay: MIC by two-fold dilution, Candida s.p.; assay type: cell-based; conditions: Candida; 15 strains; read-out: Minimum Inhibitory Concentration
Procedure: as §5

[17] = test system: Trichophyton mcntagrophytes; assay: Dermal infection in albino female guinea pigs by Trichophyton mentagrophytes; assay type: in vivo, guinea pig; conditions: for % microbiological healing / Negative Cultures to Total Cultures: 2% cream
Text: (§6) A number of compounds with antimycotic and/or fungicidal properties, which are useful in pharmaceutical compositions, are currently known. These include the commercially successful Miconazole having the formula II [drawing 2] Miconazole has a structure chemically similar to the 1H-imidazole derivative compounds of the invention. Miconazole is effective against a number of yeasts, dermatophytes and fungi. This effectiveness can be measured by culturing these microorganisms in vitro and applying a preparation containing the antimycotic compound, Miconazole. The results of this type of in vitro experiment is expressed in terms of the Minimum Inhibitory Concentration (MIC), i.e. the minimum concentration which inhibits the growth of the microorganism. For example, the MIC for Miconazole against a particular Candida albicans strain is found to be 10.7 micrograms/milliliter. The effectiveness of Miconazole as an antimycotic compound is measured in vivo by applying a suspension containing the drug to the skin of a number of animals and measuring the proportion of animals on which growth of the microorganism is inhibited as a function of time. Typically, after 25 days, about 1/4 of the animals were cured, when treated with a cream containing 2 % by weight Miconazole. Of course, any pharmaceutical preparation for treating a disease in a human must satisfy certain toxicity requirements. […] Toxicity tests have been performed on the IH-imidazole derivative compounds of the invention and on Miconazole and other known compounds having antimycotic properties. In toxicity tests the LD50 (the dose at which 50 % mortality occurs) is measured.
Dermal infection in albino female guinea pigs by Trichophyton mcntagrophytes has been studied. Animals were distributed in three groups: a) a control group of infected untreated animals; b) a scrtaconazole group of infected and treated animals; and c) a miconazole group of infected and treated animals. Animals were depleted and a 0.4 ml suspension of the microorganism was applied on the depleted area. Treatment with each of the test drugs was made by application of 1 g of 2% cream on the depleted area on the 4th, 5th and 6th day after infection.

[18] = test system: Torulopsis glabrata; assay: MIC by two-fold dilution, Torulopsis glabrata; assay type: cell-based; conditions: Nakaseomyces glabratus; 10 strains; read-out: Minimum Inhibitory Concentration
Procedure: as §5

[19] = test system: Candida albicans; assay: MIC by two-fold dilution, Candida albicans; assay type: cell-based
Text: as §6, §5

[20] = Chronic toxicity in rats; assay type: in vivo, rat; conditions: rat, in vivo; 100 mg/kg or more dosage
[21] = test system: Trichophyton rubrum; assay: Randomized double blind clinical trials, Trichophyton rubrum infection; assay type: in vivo, human; conditions: 2 % cream (nitrate salts), 28 days treatment
Procedure: (§7) Human clinical trials were performed with Sertaconazole nitrate and Miconazole nitrate acid addition salts. Randomized double blind trials were carried out with 502 patients suffering from cutaneous mycosis as confirmed by microscopic examination and microbiological culture. 247 patients were treated with 2 % Sertaconazole cream and the remaining 255 patients were treated with 2 % Miconazole cream. All patients received scheduled treatment for 28 days and were followed up for an additional 28 days for possible relapses.

[22] = test system: Microsporum canis; assay: MIC by two-fold dilution, Microsporum canis; assay type: cell-based; conditions: 4 strains, read-out: Minimum Inhibitory Concentration
Procedure: as §5

[23] = test system: Gram-positive germs; assay: MIC by two-fold dilution, Gram-positive germs; assay type: cell-based; conditions: 21 strains; read-out: Minimum Inhibitory Concentration
[24] = test system: rats; assay: Prolonged subacute toxicity in rats; assay type: in vivo, rat; conditions: p.o.
Procedure: (§8) In a study of prolonged subacute toxicity of Miconazole in rats, among other effects, significant hepatomegalias in females with a dosage of under 30 mg/kg p.o. and in males with a dosage of under 60 mg/kg p.o. were observed.

[25] = test system: Scopulariopsis brevi-caulis; assay: MIC by two-fold dilution, Scopulariopsis brevicaulis; assay type: cell-based; conditions: Scopulariopsis; 4 strains; read-out: Minimum Inhibitory Concentration
Procedure: as §5

[26] = test system: Dermatophytes, Others; assay: MIC by two-fold dilution, other dermatophytes; assay type: cell-based; conditions: 3 strains; read-out: Minimum Inhibitory Concentration
Procedure: as §5

[27] = Safe dosage based on the toxicity findings; conditions: rat, in vivo
Procedure: as §8
Based on these finds a safe dosage for Miconazole is about 10 mg/kg, while a safe dosage for Sertaconzole is about 150 mg/kg, i.e about 15 times higher.

[28] = test system: Trichophyton rubrus; assay: MIC by two-fold dilution, Trichophyton rubrus; assay type: cell-based; conditions: 10 strains, read-out: Minimum Inhibitory Concentration
Procedure: as §5

[29] = Acute toxicity (LD50) in mouse, three administration routes; conditions: in vivo
Text: as §6, §3, §4

[30] = test system: Trichophyton menta-grophytes; assay: MIC by two-fold dilution, Trichophyton mentagrophytes; assay type: cell-based; conditions: 30 strains, read-out: Minimum Inhibitory Concentration
Procedure: as §5

[31] = test system: Candida albicans; assay: Vaginal infection by Candida albicans in female mice; assay type: in vivo; conditions: seven days after infection
Text: Besides the above in vivo experiments vaginal infection by Candida albicans was studied in female mice. Standard methods were used. […] Similar results were found in experiments where repeated dosages of active compound were used after infection. These in vivo results confirmed the surprising speed of action of Sertaconazole in comparison to the prior art compounds.

[32] = test system: cutaneous mycosis; assay: Randomized double blind clinical trials, cutaneous mycosis; conditions: 2 % cream (nitrate salts)
Procedure: as §7

Clc1ccc(C(Cn2ccnc2)OCc2coc3cc(Cl)cc(Cl)c23)c(Cl)c1 (stereo not shown) [Martin compound 4, reference compound]
MIC [1]: 8 µg/mL (≈ 17.5 µM) | MIC [2]: 0.5 µg/mL (≈ 1.1 µM) | MIC ([3]; Sabouraud medium): 0.5 µg/mL (≈ 1.1 µM) | MIC ([3]; YNB medium): 0.5 µg/mL (≈ 1.1 µM) | MIC ([4]; Casitone medium): 0.5 µg/mL (≈ 1.1 µM) | MIC ([4]; YNB medium): 0.5 µg/mL (≈ 1.1 µM) | MIC ([5]; Casitone medium): 0.06 µg/mL (≈ 0.132 µM) | MIC ([5]; Sabouraud medium): 0.5 µg/mL (≈ 1.1 µM) | MIC ([5]; YNB medium): 0.5 µg/mL (≈ 1.1 µM) | MIC [6]: 8 µg/mL (≈ 17.5 µM) | MIC [7]: 8 µg/mL (≈ 17.5 µM) | MIC ([8]; Casitone medium): 0.5 µg/mL (≈ 1.1 µM) | MIC ([8]; YNB medium): 0.5 µg/mL (≈ 1.1 µM) | MIC [9]: 0.03 µg/mL (≈ 0.0658 µM) | MIC [10]: 0.03 µg/mL (≈ 0.0658 µM) | MIC [11]: 0.5 µg/mL (≈ 1.1 µM) | MIC [12]: 0.518 µg/mL (≈ 1.14 µM) | LD50 [13]: < 1000 mg/kg

Clc1ccc(COC(Cn2ccnc2)c2ccc(Cl)cc2Cl)c(Cl)c1 (stereo not shown) [Miconazole, reference compound]
LD50 ([14]; ip, intraperitoneal): 1180 mg/kg | LD50 ([14]; oral): 920 mg/kg | LD50 ([14]; sc, subcutaneous): > 5000 mg/kg | MIC [15]: 5.6 µg/mL (≈ 13.5 µM) | MIC [16]: 0.95 µg/mL (≈ 2.28 µM) | % microbiological healing ([17]; 18 days postinfection): 6% | Negative Cultures to Total Cultures ([17]; 18 days postinfection): 3/48 | % microbiological healing ([17]; 25 days postinfection): 28% | Negative Cultures to Total Cultures ([17]; 25 days postinfection): 13/48 | % microbiological healing ([17]; 32 days postinfection): 44% | Negative Cultures to Total Cultures ([17]; 32 days postinfection): 21/48 | proportion of animals cured ([17]; after 25 days, cream containing 2 % by weight): about 1/4 | MIC [18]: 1.1 µg/mL (≈ 2.64 µM) | MIC ([19]; Candida albicans, 52 strains, read-out: Minimum Inhibitory Concentration): 10.7 µg/mL (≈ 25.7 µM) | MIC ([19]; a particular Candida albicans strain, read-out: MIC): 10.7 µg/mL (≈ 25.7 µM) | mortality [20]: 32% | effectiveness against Trichophyton rubrum [21]: 79% | MIC [22]: 2 µg/mL (≈ 4.81 µM) | MIC [23]: 0.88 µg/mL (≈ 2.11 µM) | dosage with significant hepatomegalias ([24]; females): under 30 mg/kg | dosage with significant hepatomegalias ([24]; males): under 60 mg/kg | MIC [25]: 32 µg/mL (≈ 76.9 µM) | MIC [26]: 4 µg/mL (≈ 9.61 µM) | NOAEL [27]: ~10 mg/kg | MIC [28]: 0.3 µg/mL (≈ 0.721 µM) | LD50 ([29]; ip, intraperitoneal): ~600 mg/kg | LD50 ([29]; ip, intraperitoneal, males): 662 mg/kg | LD50 ([29]; po): ~2500 mg/kg | LD50 ([29]; po, males): 2560 mg/kg | LD50 ([29]; sc, subcutaneous): > 5000 mg/kg | LD50 ([29]; sc, subcutaneous, males): > 5000 mg/kg | MIC [30]: 2.8 µg/mL (≈ 6.73 µM) | animals healed [31]: 12.5% | cases of contact dermatitis [32]: 5 cases
